Numbered stars: 1 amine (or outer) side, 2 acyl side, 3 side chain; on linkers, the order of the positions; unused ones are H or OH. Bridge positions count the residues as written; N and C are the ends. Square brackets hold non-standard residues; d marks the D form. Side chains are listed from the residue outwards. Peptide text beside a SMILES is read from it. * marks the point of attachment. C18 diacid = O=C(O)CCCCCCCCCCCCCCCCC(=O)*; γGlu = O=C(O)[C@H](CCC(=O)[*:2])N[*:1]; Dab = NCC[C@H](N)C(=O)O; Aib = CC(C)(N)C(=O)O
Key:
[1] = target: T1, human amylin receptor (calcitonin receptor co-expressed with receptor activity modifying protein, RAMP3) (hAMYR3) (Homo sapiens, UniProt O60896+P30988); assay: cAMP production in 1321N1 cells with stable recombinant expression of human amylin receptor (hAMYR3); format: cell-based; conditions: for Ratio (selectivity hAMYR vs hCTR, ratio of EC50 values at the two receptors): EC50 hCTR / EC50 hAMYR3; for EC50: cAMP, 1321N1 cells, assay buffer with 0.1% BSA, read-out: EC50 (pM) hAMYR3
T1 construct: expressed in transfected cells
T1 sequence (P30988 25-474): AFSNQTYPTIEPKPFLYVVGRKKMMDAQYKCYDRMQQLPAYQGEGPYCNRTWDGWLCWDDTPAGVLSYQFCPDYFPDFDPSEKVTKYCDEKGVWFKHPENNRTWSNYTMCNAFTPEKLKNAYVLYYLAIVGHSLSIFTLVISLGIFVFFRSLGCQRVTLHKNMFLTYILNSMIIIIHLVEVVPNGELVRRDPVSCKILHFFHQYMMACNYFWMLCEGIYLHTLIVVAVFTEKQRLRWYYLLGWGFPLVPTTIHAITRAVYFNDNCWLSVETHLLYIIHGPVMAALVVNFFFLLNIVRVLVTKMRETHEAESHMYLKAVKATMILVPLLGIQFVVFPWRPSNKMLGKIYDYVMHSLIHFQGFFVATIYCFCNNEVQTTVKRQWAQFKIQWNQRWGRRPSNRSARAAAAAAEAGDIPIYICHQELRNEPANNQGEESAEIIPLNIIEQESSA
T1 sequence (O60896 24-148 partner): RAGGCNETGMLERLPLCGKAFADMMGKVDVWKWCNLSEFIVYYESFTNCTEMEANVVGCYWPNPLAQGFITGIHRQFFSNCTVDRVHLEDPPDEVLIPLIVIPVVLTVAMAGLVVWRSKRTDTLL
Outline: (§1)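 Thawed cells in HBSS/0.1% BSA/25 mM HEPES pH 7.4 with 0.5 mM IBMX were incubated with peptides 30 min at room temperature; cAMP read by HTRF. EC50 from 4-parameter fit of % activation relative to maximal amylin or calcitonin effect.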

[2] = target: T2, human calcitonin receptor (hCTR) (Homo sapiens, UniProt P30988); assay: cAMP production in 1321N1 cells with stable recombinant expression of human calcitonin receptor (hCTR); format: cell-based; conditions: cAMP, 1321N1 cells, assay buffer with 0.1% BSA; read-out: EC50 (pM) hCTR
T2 construct: expressed in transfected cells
T2 sequence (P30988 25-474): T1 sequence (P30988 25-474)
Outline: as §1

Row | SMILES | Ratio (selectivity hAMYR vs hCTR, ratio of EC50 values at the two receptors) [1] | EC50 [1] [pM] | EC50 [2] [pM]
1 | CC[C@H](C)[C@H](NC(=O)[C@@H]1CCCN1C(=O)CNC(=O)[C@H](Cc1ccccc1)NC(=O)[C@H](CC(N)=O)NC(=O)[C@H](CC(N)=O)NC(=O)[C@H](CO)NC(=O)[C@H](CO)NC(=O)[C@H](Cc1c[nH]cn1)NC(=O)C(C)(C)NC(=O)[C@H](CC(C)C)NC(=O)[C@H](Cc1ccccc1)NC(=O)[C@H](CC(N)=O)NC(=O)[C@H](C)NC(=O)[C@H](CC(C)C)NC(=O)[C@H](CCCNC(=N)N)NC(=O)[C@H](CCC(N)=O)NC(=O)[C@@H](NC(=O)[C@H](C)NC(=O)[C@@H]1CSSC[C@H](NC(=O)[C@H](CCCCN)NC(=O)[C@@H](N)CCCCNC(=O)CC[C@H](NC(=O)CCCCCCCCCCCCCCCCC(=O)O)C(=O)O)C(=O)N[C@@H](CC(N)=O)C(=O)N[C@@H]([C@@H](C)O)C(=O)N[C@@H](C)C(=O)N[C@@H]([C@@H](C)O)C(=O)N1)[C@@H](C)O)C(=O)N[C@@H](CC(C)C)C(=O)N1CCC[C@H]1C(=O)N1CCC[C@H]1C(=O)N[C@H](C(=O)N[C@@H](CC(N)=O)C(=O)N[C@H](C(=O)NCC(=O)N[C@@H](Cc1c[nH]cn1)C(=O)N[C@@H](CC(N)=O)C(=O)N[C@H](C(=O)N[C@@H](Cc1ccc(O)cc1)C(N)=O)[C@@H](C)O)C(C)C)[C@@H](C)O [Peptide 145] (H-K([γGlu-C18 diacid])KCNTATCATQRLANFL[Aib]HSSNNFGPILPPTNVGHNTY-NH2; disulfide 3-8; N-terminus assumed) | 4.5 | 417 | 1880
2 | CC[C@H](C)[C@H](NC(=O)[C@@H]1CCCN1C(=O)CNC(=O)[C@H](Cc1ccccc1)NC(=O)[C@H](CC(N)=O)NC(=O)[C@H](CC(N)=O)NC(=O)[C@H](CO)NC(=O)[C@H](CO)NC(=O)[C@H](Cc1c[nH]cn1)NC(=O)C(C)(C)NC(=O)[C@H](CC(C)C)NC(=O)[C@H](Cc1ccccc1)NC(=O)[C@H](CC(N)=O)NC(=O)[C@H](C)NC(=O)[C@H](CC(C)C)NC(=O)[C@H](CCCNC(=N)N)NC(=O)[C@H](CCC(N)=O)NC(=O)[C@@H](NC(=O)[C@H](C)NC(=O)[C@@H]1CSSC[C@H](NC(=O)[C@H](CCCCN)NC(=O)[C@@H](N)CCCCNC(=O)CC[C@H](NC(=O)CCCCCCCCCCCCCCCCC(=O)O)C(=O)O)C(=O)N[C@@H](CC(N)=O)C(=O)N[C@@H]([C@@H](C)O)C(=O)N[C@@H](C)C(=O)N[C@@H]([C@@H](C)O)C(=O)N1)[C@@H](C)O)C(=O)N[C@@H](CC(C)C)C(=O)N1CCC[C@H]1C(=O)N1CCC[C@H]1C(=O)N[C@H](C(=O)N[C@@H](CC(N)=O)C(=O)N[C@H](C(=O)NCC(=O)NC(C)(C)C(=O)N[C@@H](CC(N)=O)C(=O)N[C@H](C(=O)N[C@@H](Cc1ccc(O)cc1)C(N)=O)[C@@H](C)O)C(C)C)[C@@H](C)O [Peptide 101, K(γE-C18diacid)K[CNTATC]ATQRLANFL(Aib)HSSNNFGPILPPTNVG(Aib)NTY-amide] (H-K([γGlu-C18 diacid])KCNTATCATQRLANFL[Aib]HSSNNFGPILPPTNVG[Aib]NTY-NH2; disulfide 3-8; N-terminus assumed) | 2 | 177 | 441
3 | CC[C@H](C)[C@H](NC(=O)[C@@H]1CCCN1C(=O)CNC(=O)[C@H](Cc1ccccc1)NC(=O)[C@H](CC(N)=O)NC(=O)[C@H](CCN)NC(=O)[C@H](CO)NC(=O)[C@H](CO)NC(=O)[C@H](Cc1c[nH]cn1)NC(=O)C(C)(C)NC(=O)[C@H](CC(C)C)NC(=O)[C@H](Cc1ccccc1)NC(=O)[C@H](CC(N)=O)NC(=O)[C@H](C)NC(=O)[C@H](CC(C)C)NC(=O)[C@H](CCCNC(=N)N)NC(=O)[C@H](CCC(N)=O)NC(=O)[C@@H](NC(=O)[C@H](C)NC(=O)[C@@H]1CSSC[C@H](NC(=O)[C@H](CCCCN)NC(=O)[C@@H](N)CCCCNC(=O)CC[C@H](NC(=O)CCCCCCCCCCCCCCCCC(=O)O)C(=O)O)C(=O)N[C@@H](CC(N)=O)C(=O)N[C@@H]([C@@H](C)O)C(=O)N[C@@H](C)C(=O)N[C@@H]([C@@H](C)O)C(=O)N1)[C@@H](C)O)C(=O)N[C@@H](CC(C)C)C(=O)N1CCC[C@H]1C(=O)N1CCC[C@H]1C(=O)N[C@H](C(=O)N[C@@H](CC(N)=O)C(=O)N[C@H](C(=O)NCC(=O)N[C@@H](CO)C(=O)N[C@@H](CC(N)=O)C(=O)N[C@H](C(=O)N[C@@H](Cc1ccc(O)cc1)C(N)=O)[C@@H](C)O)C(C)C)[C@@H](C)O [Peptide 126, K(γE-C18diacid)K[CNTATC]ATQRLANFL(Aib)HSS(Dab)NFGPILPPTNVGSNTY-amide] (H-K([γGlu-C18 diacid])KCNTATCATQRLANFL[Aib]HSS[Dab]NFGPILPPTNVGSNTY-NH2; disulfide 3-8) | 19 | 445 | 8450
4 | CC[C@H](C)[C@@H]1NC(=O)[C@H](CC(N)=O)NC(=O)[C@@H](NC(=O)[C@@H](N)CCCCNC(=O)CC[C@H](NC(=O)CC[C@H](NC(=O)CCCCCCCCCCCCCCCCC(=O)O)C(=O)O)C(=O)O)CSSC[C@@H](C(=O)N[C@@H](C)C(=O)N[C@H](C(=O)N[C@@H](CCC(N)=O)C(=O)N[C@@H](CCCNC(=N)N)C(=O)N[C@@H](CC(C)C)C(=O)N[C@@H](C)C(=O)N[C@@H](CC(N)=O)C(=O)N[C@@H](Cc2ccccc2)C(=O)N[C@@H](CC(C)C)C(=O)N[C@H](C(=O)N[C@@H](Cc2c[nH]cn2)C(=O)N[C@@H](CO)C(=O)N[C@@H](CO)C(=O)N[C@@H](CCN)C(=O)N[C@@H](CC(N)=O)C(=O)N[C@@H](Cc2ccccc2)C(=O)NCC(=O)N2CCC[C@H]2C(=O)N[C@H](C(=O)N[C@@H](CC(C)C)C(=O)N2CCC[C@H]2C(=O)N2CCC[C@H]2C(=O)N[C@H](C(=O)N[C@@H](CC(N)=O)C(=O)N[C@H](C(=O)NCC(=O)N[C@@H](CO)C(=O)N[C@@H](CCCNC(=N)N)C(=O)N[C@H](C(=O)N[C@@H](Cc2ccc(O)cc2)C(N)=O)[C@@H](C)O)C(C)C)[C@@H](C)O)[C@@H](C)CC)C(C)C)[C@@H](C)O)NC(=O)[C@H]([C@@H](C)O)NC(=O)[C@H](C)NC1=O [Peptide 27, K(γE-γE-C18diacid)[CNIATC]ATQRLANFLVHSS(Dab)NFGPILPPTNVGSRTY-amide] (H-K([γGlu-γGlu-C18 diacid])CNIATCATQRLANFLVHSS[Dab]NFGPILPPTNVGSRTY-NH2; disulfide 2-7; N-terminus assumed) | 5 | 134 | 731
5 | CC[C@H](C)[C@H](NC(=O)[C@@H]1CCCN1C(=O)CNC(=O)[C@H](Cc1ccccc1)NC(=O)[C@H](Cc1c[nH]cn1)NC(=O)[C@H](CC(N)=O)NC(=O)[C@H](CO)NC(=O)[C@H](CO)NC(=O)[C@H](Cc1c[nH]cn1)NC(=O)[C@@H](NC(=O)[C@H](CC(C)C)NC(=O)[C@H](Cc1ccccc1)NC(=O)[C@H](CC(N)=O)NC(=O)[C@H](C)NC(=O)[C@H](CC(C)C)NC(=O)[C@H](CCCNC(=N)N)NC(=O)[C@H](CCC(N)=O)NC(=O)[C@@H](NC(=O)[C@H](C)NC(=O)[C@@H]1CSSC[C@H](NC(=O)[C@H](CCCCN)NC(=O)[C@@H](N)CCCCNC(=O)CC[C@H](NC(=O)CCCCCCCCCCCCCCCCC(=O)O)C(=O)O)C(=O)N[C@@H](CC(N)=O)C(=O)N[C@@H]([C@@H](C)O)C(=O)N[C@@H](C)C(=O)N[C@@H]([C@@H](C)O)C(=O)N1)[C@@H](C)O)C(C)C)C(=O)N[C@@H](CC(C)C)C(=O)N1CCC[C@H]1C(=O)N1CCC[C@H]1C(=O)N[C@H](C(=O)N[C@@H](CC(N)=O)C(=O)N[C@H](C(=O)NCC(=O)N[C@@H](CO)C(=O)N[C@@H](CCC(=O)O)C(=O)N[C@H](C(=O)N[C@@H](Cc1ccc(O)cc1)C(N)=O)[C@@H](C)O)C(C)C)[C@@H](C)O [Peptide 111] (H-K([γGlu-C18 diacid])KCNTATCATQRLANFLVHSSNHFGPILPPTNVGSETY-NH2; disulfide 3-8; N-terminus assumed) | 5 | 403 | 1880
